Measured values taken from ChEMBL document CHEMBL1201862, “PubChem BioAssay data set” (2004).
Active and inactive are the calls of the source.

Legend:
[1] = disruptors of Keap1/Nrf2 protein interaction – biochemical, fluorescence polarization, dry powder, set 3, dose response (AID 651806)
[2] = A Cell-Based Confirmatory Screen for Compounds that Inhibit VEEV, TC-83 (8).; format: functional
[3] = target: Tyrosyl-DNA phosphodiesterase 2 (Homo sapiens, UniProt O95551); assay: potency against TDP2 phosphodiesterase activity – biochemical, epi absorbance, IC50, dose response (AID 743297)
Protein RecA = target: T1, Protein RecA (Mycobacterium tuberculosis, UniProt P9WHJ3); assay: Fluorescence Cell-Free Homogeneous Dose Retest to Identify Inhibitors of RecA-Intein Splicing Activity. [Related pubchem assays (depositor defined):AID2097, AID2223, AID489010, AID492950]; format: functional
T1 sequence (P9WHJ3 whole entry): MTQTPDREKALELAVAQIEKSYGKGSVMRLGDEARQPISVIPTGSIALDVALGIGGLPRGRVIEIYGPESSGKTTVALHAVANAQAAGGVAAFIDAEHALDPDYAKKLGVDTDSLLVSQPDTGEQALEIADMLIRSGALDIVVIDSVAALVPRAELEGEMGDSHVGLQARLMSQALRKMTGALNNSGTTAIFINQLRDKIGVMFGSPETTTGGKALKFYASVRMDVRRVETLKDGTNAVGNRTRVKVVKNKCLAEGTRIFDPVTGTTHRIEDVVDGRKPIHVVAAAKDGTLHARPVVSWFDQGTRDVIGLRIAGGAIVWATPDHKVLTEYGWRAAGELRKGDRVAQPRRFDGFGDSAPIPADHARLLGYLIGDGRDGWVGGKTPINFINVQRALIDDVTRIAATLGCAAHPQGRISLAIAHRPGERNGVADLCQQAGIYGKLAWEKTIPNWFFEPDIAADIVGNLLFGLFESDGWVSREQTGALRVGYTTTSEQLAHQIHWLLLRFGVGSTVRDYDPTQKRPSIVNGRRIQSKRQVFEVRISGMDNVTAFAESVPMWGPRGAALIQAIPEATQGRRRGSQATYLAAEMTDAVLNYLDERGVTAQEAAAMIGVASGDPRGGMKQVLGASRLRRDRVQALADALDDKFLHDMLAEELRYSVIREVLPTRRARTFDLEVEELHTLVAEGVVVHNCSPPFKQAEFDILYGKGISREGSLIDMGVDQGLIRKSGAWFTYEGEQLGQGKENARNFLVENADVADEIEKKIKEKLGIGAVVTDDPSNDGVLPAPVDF

[4] = target: T2, Replicative DNA helicase DnaB (Mycobacterium tuberculosis, UniProt P9WMR3); assay: DnaB intein splicing inhibitors, dose response, biochemical, cell-free fluorescence (AID 449749); format: functional
T2 sequence (P9WMR3 whole entry): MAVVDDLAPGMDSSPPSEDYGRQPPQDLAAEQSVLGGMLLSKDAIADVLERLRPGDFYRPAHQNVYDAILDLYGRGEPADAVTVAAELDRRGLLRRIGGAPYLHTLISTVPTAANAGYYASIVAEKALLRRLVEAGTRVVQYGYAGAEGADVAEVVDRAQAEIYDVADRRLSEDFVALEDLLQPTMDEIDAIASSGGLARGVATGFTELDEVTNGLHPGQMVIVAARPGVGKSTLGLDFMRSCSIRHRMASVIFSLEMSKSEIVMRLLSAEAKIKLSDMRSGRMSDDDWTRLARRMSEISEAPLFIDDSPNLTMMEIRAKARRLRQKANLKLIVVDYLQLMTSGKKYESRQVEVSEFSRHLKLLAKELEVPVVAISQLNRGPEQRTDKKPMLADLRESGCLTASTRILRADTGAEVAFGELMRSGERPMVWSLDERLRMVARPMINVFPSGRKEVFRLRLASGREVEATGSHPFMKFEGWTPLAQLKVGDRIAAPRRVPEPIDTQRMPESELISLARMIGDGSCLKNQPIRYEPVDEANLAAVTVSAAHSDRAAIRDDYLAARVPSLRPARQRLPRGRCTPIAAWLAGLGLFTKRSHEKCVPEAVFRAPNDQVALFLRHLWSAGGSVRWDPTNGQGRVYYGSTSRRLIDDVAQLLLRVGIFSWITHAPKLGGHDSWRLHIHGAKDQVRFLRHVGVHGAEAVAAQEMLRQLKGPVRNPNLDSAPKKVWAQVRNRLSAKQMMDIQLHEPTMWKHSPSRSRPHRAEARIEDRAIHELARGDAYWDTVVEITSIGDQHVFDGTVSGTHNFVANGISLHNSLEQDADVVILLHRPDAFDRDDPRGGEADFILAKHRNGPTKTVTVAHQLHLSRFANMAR

[5] = Late stage assay provider results from the probe development effort to identify selective inhibitors of heat shock protein 90 (HSP90): Absorbance-based cell proliferation assay in MCF7 cells.; format: functional
[6] = Late stage assay provider results from the probe development effort to identify selective inhibitors of heat shock protein 90 (HSP90): Absorbance-based cell proliferation assay in SKBR3 cells.; format: functional; conditions: SK-BR-3
Insulin-degrading enzyme [7] = target: T3, Insulin-degrading enzyme (Homo sapiens, UniProt P14735); assay: recombinant IDE activation, cell-free – biochemical, fluorescence polarization, counter-screen for IDE activator project, dose response (AID 588681)
T3 sequence (P14735 whole entry): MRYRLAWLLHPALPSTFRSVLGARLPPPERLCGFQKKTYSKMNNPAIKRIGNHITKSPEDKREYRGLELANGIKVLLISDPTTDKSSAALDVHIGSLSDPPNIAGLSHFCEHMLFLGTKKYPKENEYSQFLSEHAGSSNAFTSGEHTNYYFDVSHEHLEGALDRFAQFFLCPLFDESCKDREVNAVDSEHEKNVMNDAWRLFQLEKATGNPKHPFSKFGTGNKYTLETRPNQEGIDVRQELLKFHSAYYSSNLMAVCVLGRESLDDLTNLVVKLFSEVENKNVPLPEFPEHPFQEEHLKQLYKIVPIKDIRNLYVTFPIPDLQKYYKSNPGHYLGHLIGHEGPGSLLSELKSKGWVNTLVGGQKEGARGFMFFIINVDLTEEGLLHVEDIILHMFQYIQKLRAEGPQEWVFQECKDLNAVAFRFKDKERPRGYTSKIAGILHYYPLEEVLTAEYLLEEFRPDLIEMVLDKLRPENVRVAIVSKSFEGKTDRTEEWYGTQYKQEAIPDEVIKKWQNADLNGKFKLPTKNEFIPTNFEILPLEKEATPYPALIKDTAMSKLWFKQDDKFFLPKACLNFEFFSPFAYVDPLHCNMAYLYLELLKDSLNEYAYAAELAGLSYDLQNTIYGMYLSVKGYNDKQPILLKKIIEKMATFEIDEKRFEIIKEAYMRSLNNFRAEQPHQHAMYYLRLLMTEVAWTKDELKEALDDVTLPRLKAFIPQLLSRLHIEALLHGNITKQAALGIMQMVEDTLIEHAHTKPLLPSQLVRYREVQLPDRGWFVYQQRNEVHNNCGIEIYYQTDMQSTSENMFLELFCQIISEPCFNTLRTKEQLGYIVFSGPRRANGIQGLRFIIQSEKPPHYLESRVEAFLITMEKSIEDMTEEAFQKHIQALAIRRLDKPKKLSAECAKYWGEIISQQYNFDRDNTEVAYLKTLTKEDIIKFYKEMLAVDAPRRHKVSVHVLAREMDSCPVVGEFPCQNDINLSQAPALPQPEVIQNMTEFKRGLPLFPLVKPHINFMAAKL

Protein S100-A4 = Protein S100-A4 (Homo sapiens, UniProt P26447); assay: human S100A4 peptide interaction inhibition curves – biochemical, fluorescence polarization, cherry-picked hits, dose response (AID 687001); format: functional
Insulin-degrading enzyme [8] = target: T3, Insulin-degrading enzyme; assay: cellular IDE activation of Abeta substrate cleavage – fluorescence polarization, HEK cells, dose response (AID 588439); format: functional, cell-based
ORF 73 = target: T4, ORF 73 (Human herpesvirus 8, UniProt O40947); assay: KSHV LANA DNA-binding disruption – biochemical, fluorescence polarization, cherry-picked samples, dose response (AID 504725); set-up: species or system Human gammaherpesvirus 8;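 also: fluorescence polarization of a labeled DNA duplex reporting LANA DNA binding; potency is for inhibitors that block LANA binding to the DNA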
T4 sequence (O40947 whole entry): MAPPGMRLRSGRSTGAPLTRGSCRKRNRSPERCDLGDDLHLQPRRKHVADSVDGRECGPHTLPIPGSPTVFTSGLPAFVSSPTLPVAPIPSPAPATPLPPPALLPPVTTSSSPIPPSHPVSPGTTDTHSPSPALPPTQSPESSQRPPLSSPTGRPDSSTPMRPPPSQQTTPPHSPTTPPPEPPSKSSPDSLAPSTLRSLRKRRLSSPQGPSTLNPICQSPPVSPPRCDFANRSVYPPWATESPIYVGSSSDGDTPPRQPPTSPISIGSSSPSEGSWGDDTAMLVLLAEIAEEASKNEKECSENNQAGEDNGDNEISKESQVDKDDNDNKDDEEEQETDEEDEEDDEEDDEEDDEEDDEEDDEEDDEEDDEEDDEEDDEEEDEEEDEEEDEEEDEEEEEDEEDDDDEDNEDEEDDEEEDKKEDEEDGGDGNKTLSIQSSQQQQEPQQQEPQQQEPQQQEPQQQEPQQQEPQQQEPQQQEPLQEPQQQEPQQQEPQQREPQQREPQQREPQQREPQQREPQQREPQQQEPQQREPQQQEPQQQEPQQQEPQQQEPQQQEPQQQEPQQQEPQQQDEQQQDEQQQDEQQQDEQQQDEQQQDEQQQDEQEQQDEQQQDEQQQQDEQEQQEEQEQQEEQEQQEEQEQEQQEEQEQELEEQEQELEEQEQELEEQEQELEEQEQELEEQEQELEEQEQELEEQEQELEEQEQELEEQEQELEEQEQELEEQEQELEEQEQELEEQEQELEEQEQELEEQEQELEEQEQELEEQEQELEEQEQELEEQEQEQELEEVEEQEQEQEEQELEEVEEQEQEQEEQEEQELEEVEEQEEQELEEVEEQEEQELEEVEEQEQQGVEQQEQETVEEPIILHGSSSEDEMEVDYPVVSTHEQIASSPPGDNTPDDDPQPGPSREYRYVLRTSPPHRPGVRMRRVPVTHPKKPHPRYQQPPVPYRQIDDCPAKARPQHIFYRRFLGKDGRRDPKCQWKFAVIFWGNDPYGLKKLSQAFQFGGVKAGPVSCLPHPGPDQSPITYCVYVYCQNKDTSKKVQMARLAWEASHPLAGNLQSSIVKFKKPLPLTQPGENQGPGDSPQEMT

HEK293 [9] = assay: optical interference in Abeta FP readout, dose response, artefact control for IDE activator project, biochemical, fluorescence polarization (AID 588442); format: functional, cell-based; conditions: Homo sapiens
HeLa = assay: viability loss in HeLa cells – cell-based, 24 h, cherry-picked samples, cytotoxicity control, dose response (AID 504726); format: functional; conditions: Homo sapiens;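 also: potency for cytotoxicity as loss of luminescence signal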
HEK293 [10] = assay: membrane integrity loss in HEK cells – cell-based, fluorescence, cytotoxicity control for IDE activator project, dose response (AID 588440); format: functional; conditions: Homo sapiens;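 also: cytotoxicity by LDH release measuring loss of membrane integrity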
Albumin = Albumin (Bos taurus, UniProt P02769); assay: Counterscreen for inhibitors of T-cell receptor (TCR)-CD3 interaction: Fluorescence-based biochemical high throughput dose response assay to identify inhibitors of T-cell receptor (TCR)-CD3 interaction using a TAMRA-labeled BSA probe.; format: functional
H9c2 = assay: cells; format: functional, cell-based; conditions: Rattus norvegicus, H9c2, Myocardium;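 also: confirmatory concentration-response retest of ultra-high-throughput screening hits for modulation of myocardial damage; cell death induced by hydrogen peroxide oxidative stress; compound pretreatment for 60 min then peroxide exposure for 2 h; potency is for protecting the cells against peroxide damage rather than for killing them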
[11] = target: Metabotropic glutamate receptor 3 (Rattus norvegicus, UniProt P31422); assay: inhibition of rat mGlu3 glutamate signaling – HEK/GIRK cells, thallium flux, dose response (AID 651839); format: functional
[12] = target: Oxysterols receptor LXR-beta (Homo sapiens, UniProt P55055); format: functional, cell-based;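 also: agonist activity at LXR measured by a cell-based luminescence readout across a dose range, run as a counterscreen for daf-12 agonists; HEK293 cells with Gal4-LXR fusion and GAL4-driven luciferase reporter; potency for activation of Gal4-LXR reporter so compounds are agonists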
[13] = cytotoxicity in HEK293 background cells – cell-based, dry powder, set 2, counter-screen for EBV LMP1 inhibitor project, dose response (AID 624374); format: functional
[14] = inhibitors of EBV LMP1 NF-kappaB signaling – cell-based, luciferase reporter, luminescence, dry powder, set 2, dose response (AID 624376); format: functional

Chain of Tyrosyl-DNA phosphodiesterase 2 (O95551 whole entry): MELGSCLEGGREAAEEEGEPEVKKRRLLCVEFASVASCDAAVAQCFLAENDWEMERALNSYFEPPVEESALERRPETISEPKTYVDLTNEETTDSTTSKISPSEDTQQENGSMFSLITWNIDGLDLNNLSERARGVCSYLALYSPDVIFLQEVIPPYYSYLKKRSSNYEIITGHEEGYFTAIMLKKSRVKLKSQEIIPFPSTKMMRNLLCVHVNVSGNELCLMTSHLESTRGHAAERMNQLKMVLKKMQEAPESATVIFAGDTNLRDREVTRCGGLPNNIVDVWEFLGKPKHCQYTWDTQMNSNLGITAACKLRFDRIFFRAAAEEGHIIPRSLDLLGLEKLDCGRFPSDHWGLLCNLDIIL
Chain of Albumin (P02769 whole entry): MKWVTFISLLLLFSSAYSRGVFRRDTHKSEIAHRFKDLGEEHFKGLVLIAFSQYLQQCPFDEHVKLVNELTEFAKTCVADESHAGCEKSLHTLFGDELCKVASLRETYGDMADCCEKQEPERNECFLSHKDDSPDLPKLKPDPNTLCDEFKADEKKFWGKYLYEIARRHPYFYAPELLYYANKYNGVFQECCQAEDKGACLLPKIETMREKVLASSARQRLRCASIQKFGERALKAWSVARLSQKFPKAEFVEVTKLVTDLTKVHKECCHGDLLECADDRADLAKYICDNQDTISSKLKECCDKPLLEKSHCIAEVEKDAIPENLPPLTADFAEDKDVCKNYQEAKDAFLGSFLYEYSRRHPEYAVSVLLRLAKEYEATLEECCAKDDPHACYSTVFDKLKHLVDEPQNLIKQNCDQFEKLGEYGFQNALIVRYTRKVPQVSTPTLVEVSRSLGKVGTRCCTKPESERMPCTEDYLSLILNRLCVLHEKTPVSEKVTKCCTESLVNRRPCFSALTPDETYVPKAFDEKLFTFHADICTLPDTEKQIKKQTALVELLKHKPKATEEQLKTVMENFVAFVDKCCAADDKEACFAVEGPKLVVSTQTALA
Chain of Metabotropic glutamate receptor 3 (P31422 whole entry, the tested form may be a part): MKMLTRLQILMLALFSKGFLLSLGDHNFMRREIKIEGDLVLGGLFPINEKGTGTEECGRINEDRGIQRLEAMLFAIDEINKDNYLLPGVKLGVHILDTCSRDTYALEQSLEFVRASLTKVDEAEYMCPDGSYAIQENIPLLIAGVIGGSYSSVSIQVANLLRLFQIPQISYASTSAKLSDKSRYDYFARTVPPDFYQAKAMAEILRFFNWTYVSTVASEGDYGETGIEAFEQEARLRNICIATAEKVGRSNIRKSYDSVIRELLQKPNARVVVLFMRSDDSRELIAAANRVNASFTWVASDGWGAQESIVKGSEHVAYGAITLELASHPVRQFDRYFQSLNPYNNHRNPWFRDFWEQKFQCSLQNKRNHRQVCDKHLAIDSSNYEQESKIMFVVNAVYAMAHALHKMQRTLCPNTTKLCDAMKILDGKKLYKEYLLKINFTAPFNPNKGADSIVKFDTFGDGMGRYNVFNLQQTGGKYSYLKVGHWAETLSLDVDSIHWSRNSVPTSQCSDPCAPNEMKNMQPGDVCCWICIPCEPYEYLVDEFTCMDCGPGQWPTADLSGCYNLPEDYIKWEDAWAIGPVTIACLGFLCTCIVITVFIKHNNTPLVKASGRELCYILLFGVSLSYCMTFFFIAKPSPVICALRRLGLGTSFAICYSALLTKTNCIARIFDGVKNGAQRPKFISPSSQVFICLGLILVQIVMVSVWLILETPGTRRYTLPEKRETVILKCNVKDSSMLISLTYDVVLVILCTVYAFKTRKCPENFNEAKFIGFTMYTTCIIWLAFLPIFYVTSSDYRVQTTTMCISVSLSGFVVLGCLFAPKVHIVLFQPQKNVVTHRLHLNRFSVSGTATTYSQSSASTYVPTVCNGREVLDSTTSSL
Chain of Protein S100-A4 (P26447 whole entry): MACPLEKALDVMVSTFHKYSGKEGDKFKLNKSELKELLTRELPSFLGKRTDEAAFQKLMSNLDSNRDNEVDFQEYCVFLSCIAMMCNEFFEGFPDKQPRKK
Chain of Oxysterols receptor LXR-beta (P55055 whole entry, the tested form may be a part): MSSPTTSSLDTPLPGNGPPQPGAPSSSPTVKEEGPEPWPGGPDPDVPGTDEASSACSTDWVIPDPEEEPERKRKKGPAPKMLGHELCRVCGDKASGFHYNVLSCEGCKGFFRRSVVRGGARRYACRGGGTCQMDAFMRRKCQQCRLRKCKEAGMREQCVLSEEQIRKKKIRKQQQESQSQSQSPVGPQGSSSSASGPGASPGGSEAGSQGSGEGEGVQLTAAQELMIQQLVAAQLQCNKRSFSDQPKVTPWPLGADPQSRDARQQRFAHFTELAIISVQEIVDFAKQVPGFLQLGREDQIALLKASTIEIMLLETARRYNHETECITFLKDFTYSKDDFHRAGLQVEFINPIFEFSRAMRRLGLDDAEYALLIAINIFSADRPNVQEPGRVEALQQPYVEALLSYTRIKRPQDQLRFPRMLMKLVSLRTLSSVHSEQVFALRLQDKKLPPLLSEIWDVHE

SMILES: O=C(O)Cc1ccccc1C(=O)N1CCc2ccccc2[C@H]1CN1C(=O)c2ccccc2C1=O
- AC50 [1]: 61.4 µM (active)

SMILES: CN1CCN(C)/C(=N/c2ccc(F)cc2C(=O)Nc2ccccc2)C1
- IC50 [2]: 6.39 µM (active)

SMILES: Cc1cc(=O)n(C2CCS(=O)(=O)C2)[nH]1 (stereo not given)
- IC50 [3]: > 128 µM (inactive)
- EC50 (Protein RecA): 1.91 µM (active)
- AC50 [4]: 3.43 µM (active)

SMILES: COc1ccccc1NC(=O)c1cc(=O)c(OC)c[nH]1
- IC50 [5]: > 100 µM (inactive)
- IC50 [6]: > 100 µM (inactive)

SMILES: COc1ccc2c3c(cccc13)C(=O)CC2
- EC50 (Insulin-degrading enzyme [7]): > 54.7 µM (inactive)
- AC50 (Protein S100-A4): 7.21 µM (active)
- EC50 (Insulin-degrading enzyme [8]): > 54.7 µM (inactive)
- AC50 (ORF 73): 6.76 µM (active)
- EC50 (HEK293 [9]): > 18.6 µM (inactive)
- AC50 (HeLa): 31.7 µM (active)
- IC50 (HEK293 [10]): > 89.2 µM (inactive)

SMILES: COC(=O)Cn1/c(=N/C(=O)c2cc(-c3cccs3)nc3ccccc23)sc2cc(S(N)(=O)=O)ccc21
- IC50 (Albumin): > 94.1 µM (inactive)
- IC50 (H9c2): 28.2 µM (active)

SMILES: COc1ccc(C#Cc2ccc(C(=O)N3CCC(OC)C3)cc2)cc1 (stereo not given)
- IC50 [11]: 10.7 µM (active)

SMILES: O=C(O)c1cc(-c2cccs2)[nH]n1
- EC50 [12]: > 67.6 µM (inactive)

SMILES: CCC(=O)N1Cc2cc(C(=O)Nc3nccs3)nc(-c3cccc(-c4ccccc4OC)c3)c2[C@H]1CCO
- AbsAC35 [13]: 247.5 µM
- AbsAC35 [14]: 49.1 µM
